Experimental data from patent US4868204A, “Mycalamide compounds, compositions thereof and methods of preparation and use” (Harbor Branch Oceanographic Institution, Inc., priority 1988, dated 1989).
Read-outs that look alike come from different tables or passages of the source.

Assays:
P388 mouse leukemia cell = experiment: in vitro P388 mouse leukemia cell assay; format: cell-based; settings: 50% inhibition of cell replication vs untreated cultures
Description: Antitumor effectiveness of the compounds of the invention was evaluated using a standardized in vitro P388 mouse leukemia cell assay protocol disclosed in U.S. Pat. No. 4,731,366 with the antitumor activity being expressed in IC50 (concentration that results in 50% inhibition of cell replication normalized to untreated cultures) determined with a log-log transform of data and expressed as xx ng/ml. As an example, for mycalamide A the P388 assay value was […]

HSV = format: cell-based, Herpes simplex type 1 virus
[1] = tested on: polio vaccine virus Type I (PVI); format: cell-based
P338 tumor = experiment: in vivo P388 tumor procedure in mice (% T/C)
Description: (§1) Antitumor effectiveness of mycalamide A was also evaluated using a standardized in vivo procedure by injecting mice with the test material starting 24 hours after P338 tumor implantation. A T/C value is calculated using the formula % T/C=Median survival of test group/Median survival of control group×100%, A T/C value above 130% is considered significant.

B16 murine melanoma = experiment: in vivo B16 murine melanoma assay
Description: as §1
In vivo antitumor activity of mycalamide A was also tested with an B16 murine melanoma assay resulting in the following data: […]

A59 = tested on: A59; design: species or system mice; settings: mouse, in vivo, 0.1 mg/kg
mice = settings: mouse, in vivo
antimitotic activity = settings: British Pat. Nos. 1,078,049 and 932,875; cited from earlier work

Structure (SMILES): COC1C2OCOC(NC(=O)C(O)C3(O)CC(C)C(C)C(C)O3)C2OC(CC(O)CO)C1(C)C (stereo not drawn) [Example 23, 4β-dihydro pseudomycalamide A]
- P388 IC50 (P388 mouse leukemia cell): 4.2 ng/mL
- AV assay, HSV (HSV): 4+
- AV assay, PVI [1]: 4+

Structure (SMILES): C=C1CC(OC)(C(O[Si](C)(C)C)C(=O)NC2OCOC3C2OC(CC(CO[Si](C)(C)C)OC)C(C)(C)C3OC)OC(C)C1C (stereo not drawn) [Example 18, Mycalamide B bis-trimethylsilylether]
- P388 IC50 (P388 mouse leukemia cell): 0.19 ng/mL

Structure (SMILES): C=C1CC(OC)(C(OC(C)=O)C(=O)NC2OCOC3C2OC(CC(COC(C)=O)OC(C)=O)C(C)(C)C3OC)OC(C)C1C (stereo not drawn) [Example 7, Mycalamide A Triacetate]
- P388 IC50 (P388 mouse leukemia cell): 51.9 ng/mL
- AV assay, cytotoxicity (BSC cells): -

Structure (SMILES): C=C1CC(OC)(C(OC(=O)CC)C(=O)NC2OCOC3C2OC(CC(COC(=O)CC)OC(=O)CC)C(C)(C)C3OC)OC(C)C1C (stereo not drawn) [Example 8, Mycalamide A Tripropanoate]
- P388 IC50 (P388 mouse leukemia cell): 85.6 ng/mL
- AV assay, PVI [1]: 4+ and -
- AV assay, cytotoxicity (BSC cells): -

Structure (SMILES): COC1C2OCOC(NC(=O)C(O)C3(OC)CC(C)C(C)C(C)O3)C2OC(CC(O)CO)C1(C)C (stereo not drawn) [Example 22, 4β-dihydro mycalamide A]
- P388 IC50 (P388 mouse leukemia cell): 0.8 ng·mL
- AV assay, cytotoxicity (BSC cells): -

Structure (SMILES): C=C1C[C@](OC)([C@H](O)C(=O)N[C@H]2OCO[C@H]3[C@@H]2O[C@H](C[C@H](O)CO)C(C)(C)[C@@H]3OC)O[C@H](C)[C@@H]1C [mycalamide A, Mycalamide A]
- P388 IC50 (P388 mouse leukemia cell): 1.6 ng/mL
- Median T/C % (P338 tumor; 0.0012 mg/kg, 2nd series): 117%
- Median T/C % (P338 tumor; 0.0025 mg/kg, 1st series): 137%
- Median T/C % (P338 tumor; 0.0025 mg/kg, 2nd series): 122%
- Median T/C % (P338 tumor; 0.005 mg/kg, 1st series): 132%
- Median T/C % (P338 tumor; 0.005 mg/kg, 2nd series): 133%
- Median T/C % (P338 tumor; 0.01 mg/kg, 1st series): 116%
- Median T/C % (P338 tumor; 0.01 mg/kg, 2nd series): 156%
- Median T/C % (P338 tumor; 0.02 mg/kg, 1st series): Toxic
- Median T/C % (P338 tumor; 0.02 mg/kg, 2nd series): 106%
- Cures (B16 murine melanoma; 0.0625 mg/kg): 0
- Median T/C % (B16 murine melanoma; 0.0625 mg/kg): 197%
- Cures (B16 murine melanoma; 0.125 mg/kg): 0
- Median T/C % (B16 murine melanoma; 0.125 mg/kg): 189%
- Cures (B16 murine melanoma; 0.5 mg/kg): 0
- Median T/C % (B16 murine melanoma; 0.5 mg/kg): Toxic
- Cumulative mortality (A59): 0%
- Cumulative mortality (mice; 0.01 mg/kg, 48 h): 0%
- Cumulative mortality (mice; 0.01 mg/kg, 96 h): 0%
- Cumulative mortality (mice; 0.01 mg/kg, 144 h): 0%
- Cumulative mortality (mice; 0.01 mg/kg, 192 h): 0%
- Cumulative mortality (mice; 0.01 mg/kg, 240 h): 0%
- Cumulative mortality (mice; 0.01 mg/kg, 288 h): 0%
- Cumulative mortality (mice; 0.01 mg/kg, 336 h): 0%
- Cumulative mortality (mice; 0.1 mg/kg, 48 h): 0%
- Cumulative mortality (mice; 0.1 mg/kg, 96 h): 0%
- Cumulative mortality (mice; 0.1 mg/kg, 144 h): 0%
- Cumulative mortality (mice; 0.1 mg/kg, 192 h): 0%
- Cumulative mortality (mice; 0.1 mg/kg, 240 h): 0%
- Cumulative mortality (mice; 0.1 mg/kg, 288 h): 0%
- Cumulative mortality (mice; 0.1 mg/kg, 336 h): 0%
- Cumulative mortality (mice; 1 mg/kg, 48 h): 0%
- Cumulative mortality (mice; 1 mg/kg, 96 h): 0%
- Cumulative mortality (mice; 1 mg/kg, 144 h): 100%
- Cumulative mortality (mice; 1 mg/kg, 192 h): 100%
- Cumulative mortality (mice; 1 mg/kg, 240 h): 100%
- Cumulative mortality (mice; 1 mg/kg, 288 h): 100%
- Cumulative mortality (mice; 1 mg/kg, 336 h): 100%

Structure (SMILES): C=C1CC(OC)(C(O)C(=O)NC2OCOC3C2OC(CC(O)COC(=O)c2ccc(Br)cc2)C(C)(C)C3OC)OC(C)C1C (stereo not drawn) [Example 11, Mycalamide A 18-mono-p-bromobenzoate]
- P388 IC50 (P388 mouse leukemia cell): 1.28 ng/mL
- AV assay, PVI [1]: 4+ and -
- AV assay, cytotoxicity (BSC cells): -

Structure (SMILES): COC(CO)CC1OC2C(NC(=O)C(O)C3(O)CC(C)C(C)C(C)O3)OCOC2C(OC)C1(C)C (stereo not drawn) [Example 26, 4α Dihydro pseudomycalamide B]
- P388 IC50 (P388 mouse leukemia cell): 3 ng/mL
- AV assay, HSV (HSV): 4+ and -
- AV assay, PVI [1]: 4+ and -
- AV assay, cytotoxicity (BSC cells): -

Structure (SMILES): C=C1CC(OC)(C(OC(=O)c2ccc(Br)cc2)C(=O)NC2OCOC3C2OC(CC(O)CO)C(C)(C)C3OC)OC(C)C1C (stereo not drawn) [Example 10, Mycalamide A 7-mono-p-bromobenzoate]
- P388 IC50 (P388 mouse leukemia cell): 23.3 ng/mL
- AV assay, HSV (HSV): 4+
- AV assay, PVI [1]: 4+

Structure (SMILES): C=C1CC(O)(C(O)C(=O)NC2OCOC3C2OC(CC(CO)OC)C(C)(C)C3OC)OC(C)C1C (stereo not drawn) [Example 27, Pseudomycalamide B]
- P388 IC50 (P388 mouse leukemia cell): 1.8 ng/mL
- AV assay, HSV (HSV): 4+ and -
- AV assay, PVI [1]: 4+ and -
- AV assay, cytotoxicity (BSC cells): -

Structure (SMILES): C=C1CC(OC)(C(O[Si](C)(C)C)C(=O)NC2OCOC3C2OC(CC(CO[Si](C)(C)C)O[Si](C)(C)C)C(C)(C)C3OC)OC(C)C1C (stereo not drawn) [Example 15, Mycalamide A tris-trimethylsilylether]
- P388 IC50 (P388 mouse leukemia cell): 1.3 ng/mL
- AV assay, HSV (HSV): 4+ and -
- AV assay, PVI [1]: 4+ and -
- AV assay, cytotoxicity (BSC cells): -

Structure (SMILES): C=C1C[C@](OC)([C@H](O)C(=O)N[C@H]2OCO[C@H]3[C@@H]2O[C@H](C[C@@H](CO)OC)C(C)(C)[C@@H]3OC)O[C@H](C)[C@@H]1C [Example 2, Mycalamide B]
- P388 IC50 (P388 mouse leukemia cell): 0.26 ng/mL
- AV assay, HSV (HSV): 4+ and -
- AV assay, PVI [1]: 4+ and -
- AV assay, cytotoxicity (BSC cells): -

Structure (SMILES): COC1C2OCOC(NC(=O)C(OC(=O)c3ccc(Br)cc3)=C3C=C(C)C(C)C(C)O3)C2OC(CC(O)COC(=O)c2ccc(Br)cc2)C1(C)C (single isomer, unassigned) [Example 13, Neomycalamide A 7,18-di-p-bromobenzoate]
- P388 IC50 (P388 mouse leukemia cell): 572.5 ng/mL
- AV assay, HSV (HSV): 4+ and -
- AV assay, PVI [1]: 4+ and -
- AV assay, cytotoxicity (BSC cells): -

Structure (SMILES): C=C1CC(OC)(C(OC(C)=O)C(=O)NC2OCOC3C2OC(CC(COC(C)=O)OC)C(C)(C)C3OC)OC(C)C1C (stereo not drawn) [Example 9, Mycalamide B Diacetate]
- P388 IC50 (P388 mouse leukemia cell): 15.3 ng/mL
- AV assay, HSV (HSV): 4+ and -
- AV assay, PVI [1]: 4+ and -
- AV assay, cytotoxicity (BSC cells): -

Structure (SMILES): C=C1C[C@](OC)([C@H](O)C(=O)N[C@@H](OC)[C@@H]2C[C@@H](O)C(C)(C)[C@@H](C[C@@H](COC)OC)O2)O[C@H](C)[C@@H]1C [Pederin, pederin]
- antimitotic activity (antimitotic activity): shows antimitotic activity

Structure (SMILES): COC1C2OCOC(NC(=O)C(O)C3(OC)CC(C)C(C)C(C)O3)C2OC(CC(O)CO)C1(C)C (stereo not drawn) [Example 19, 4α-Dihydro mycalamide A]
- P388 IC50 (P388 mouse leukemia cell): 2.3 ng/mL
- AV assay, HSV (HSV): 4+ and -

Structure (SMILES): COC1C2OCOC(NC(=O)C(O)C3(OC)CC4(CO4)C(C)C(C)O3)C2OC(CC(O)CO)C1(C)C (stereo not drawn) [Example 3, Mycalamide A 4 γ-epoxide]
- P388 IC50 (P388 mouse leukemia cell): 34 ng/mL

Structure (SMILES): C=C1CC(OC)(C(O)C(=O)NC2OCOC3C2OC(CC(CO[Si](C)(C)C)OC)C(C)(C)C3OC)OC(C)C1C (stereo not drawn) [Example 17, Mycalamide B 18-mono-trimethylsilylether]
- P388 IC50 (P388 mouse leukemia cell): 0.08 ng/mL
- AV assay, HSV (HSV): 4+ and -
- AV assay, PVI [1]: 4+ and -
- AV assay, cytotoxicity (BSC cells): -

Structure (SMILES): COC1C2OCOC(NC(=O)C(O)C3(O)CC(C)C(C)C(C)O3)C2OC(CC(O)CO)C1(C)C (stereo not drawn) [Example 20, 4α-dihydro pseudomycalamide A]
- P388 IC50 (P388 mouse leukemia cell): 10.5 ng/mL
- AV assay, HSV (HSV): 4+

Structure (SMILES): C=C1CC(O)(C(O)C(=O)NC2OCOC3C2OC(CC(O)CO)C(C)(C)C3OC)OC(C)C1C (stereo not drawn) [Example 28, Pseudomycalamide A]
- P388 IC50 (P388 mouse leukemia cell): 23 ng/mL
- AV assay, HSV (HSV): 4+
- AV assay, PVI [1]: 4+

Structure (SMILES): COC(CO)CC1OC2C(NC(=O)C(O)C3(OC)CC(C)C(C)C(C)O3)OCOC2C(OC)C1(C)C (stereo not drawn) [Example 24, 4β-Dihydro mycalamide B]
- P388 IC50 (P388 mouse leukemia cell): 0.14 ng/mL
- AV assay, PVI [1]: 4+

Structure (SMILES): C=C1CC(OC)(C(OC(=O)c2ccc(Br)cc2)C(=O)NC2OCOC3C2OC(CC(O)COC(=O)c2ccc(Br)cc2)C(C)(C)C3OC)OC(C)C1C (stereo not drawn) [Example 12, Mycalamide A 7,18-di-p-bromobenzoate]
- P388 IC50 (P388 mouse leukemia cell): 141.2 ng/mL
- AV assay, PVI [1]: 4+

Structure (SMILES): COC1C2OCOC(NC(=O)C(O)C3(OC)CC4(CO4)C(C)C(C)O3)C2OC(CC(O)CO)C1(C)C (stereo not drawn) [Example 4, Mycalamide A 4β-epoxide]
- P388 IC50 (P388 mouse leukemia cell): 14.9 ng/mL
- AV assay, HSV (HSV): 4+

Structure (SMILES): C=C1CC(OC)(C(O)C(=O)NC2OCOC3C2OC(CC(CO[Si](C)(C)C)O[Si](C)(C)C)C(C)(C)C3OC)OC(C)C1C (stereo not drawn) [Example 14, Mycalamide A 17,18-bis-trimethylsilylether]
- P388 IC50 (P388 mouse leukemia cell): 1.2 ng/mL
- AV assay, HSV (HSV): 4+
- AV assay, PVI [1]: 4+

Structure (SMILES): C=C1CC(OC)(C(O)C(=O)NC2OCOC3C2OC(CC(O)CO[Si](C)(C)C(C)(C)C)C(C)(C)C3OC)OC(C)C1C (stereo not drawn) [Example 16, Mycalamide A 18-mono-t-butyl,dimethylsilylether]
- P388 IC50 (P388 mouse leukemia cell): 28.5 ng/mL
- AV assay, HSV (HSV): 4+ and -
- AV assay, PVI [1]: 4+ and -
- AV assay, cytotoxicity (BSC cells): -
